According to patent publication US11896603B2, “Oligosaccharide as therapeutic agent for alcohol associated liver disease” (The Regents of the University of California, priority 2020, dated 2024):

Experiments:
E. faecalis = experiment: Fecal E. faecalis and cytolysin by qPCR in chronic-binge ethanol diet-fed mice; format: in vivo, mouse; conditions: Fut2^−/− mice
Protocol: In the 2′-fucosyllactose (2′-FL; a gift from Jennewein Biotechnologie GmbH, Germany) supplementation experiments we used a chronic-binge ethanol diet (NIAAA model). Fut2^−/− mice (10-11 weeks, male and female) were fed with Lieber-DeCarli diet with caloric intake from ethanol 0% on days 1-5 and 36% of total calories from day 6 to day 16. At day 16 in the early morning, mice were gavaged with a single dose of ethanol (5 g/kg body weight) and harvested 9 hours later. In the 2′-FL treated groups 2′-FL was added in the ethanol diet at a final concentration of 2 mg/mL and given continuously during the study period.
Reverse transcription and real-time quantitative PCR. For reverse transcription qPCR, RNA was extracted from mouse liver, and cDNAs were generated as described. DNA from mouse feces was extracted using QIAamp Fast DNA Stool kit (Qiagen, 51604). Quantitative PCR was performed with iTaq universal SYBR Green Supermix (Bio-Rad, 1725124) using a StepOnePlus thermocycler real-time PCR system. Primer sequences for mouse genes were obtained from the NIH qPrimerDepot. The values of mouse genes were normalized to 18S, while bacterial genes were normalized to 16S.

[1] = tested on: cytolysin positive strain of E. faecalis; experiment: Enterococcus faecalis cultures, growth by optical density at 600 nm; format: cell-based; conditions: BHI media with 0, 0.25, 0.5, 1, 2 or 20 mg/mL of 2′-FL, 6 h, sampling every 30 min (FIG. 5G)
Protocol: Enterococcus faecalis cultures. A cytolysin positive strain of E. faecalis, which was isolated from feces of an ethanol-fed Atp4a^s1/s1 mouse, was cultured in BHI media with 0, 0.25, 0.5, 1, 2 or 20 mg/mL of 2′-FL in triplicate for each concentration. Sampling was taken at 30 min intervals during the course of 6 h. Cell growth was determined by measuring the optical density at 600 nm for each time-point.

Fut2^−/− mice = experiment: 2′-FL supplementation in chronic-binge ethanol diet (NIAAA model), ethanol-induced liver disease; format: in vivo, mouse
Protocol: In the 2′-fucosyllactose (2′-FL; a gift from Jennewein Biotechnologie GmbH, Germany) supplementation experiments we used a chronic-binge ethanol diet (NIAAA model). Fut2^−/− mice (10-11 weeks, male and female) were fed with Lieber-DeCarli diet with caloric intake from ethanol 0% on days 1-5 and 36% of total calories from day 6 to day 16. At day 16 in the early morning, mice were gavaged with a single dose of ethanol (5 g/kg body weight) and harvested 9 hours later. In the 2′-FL treated groups 2′-FL was added in the ethanol diet at a final concentration of 2 mg/mL and given continuously during the study period. Formalin-fixed and paraffin-embedded mouse livers were stained with hematoxylin-eosin (Leica Biosystems Inc.) using standard staining protocols. Frozen liver sections were stained with Oil Red O (Sigma-Aldrich, 00625). Biochemical assays. Levels of plasma alanine aminotransferase (ALT) were measured using infinity ALT kit (Thermo Scientific, TR71121). Triglyceride levels were measured using the Triglyceride Liquid Reagents Kit (Pointe Scientific, 51604). Reverse transcription and real-time quantitative PCR. For reverse transcription qPCR, RNA was extracted from mouse liver, and cDNAs were generated as described. DNA from mouse feces was extracted using QIAamp Fast DNA Stool kit (Qiagen, 51604). Quantitative PCR was performed with iTaq universal SYBR Green Supermix (Bio-Rad, 1725124) using a StepOnePlus thermocycler real-time PCR system. Primer sequences for mouse genes were obtained from the NIH qPrimerDepot. The values of mouse genes were normalized to 18S, while bacterial genes were normalized to 16S.

## CC1O[C@@H](OC2[C@H](O[C@@H]3C(CO)OC(O)C(O)[C@H]3O)OC(CO)[C@H](O)[C@@H]2O)[C@@H](O)C(O)[C@@H]1O (stereo partly shown) [2′-FL, 2′-fucosyllactose]
E. faecalis; chronic-binge ethanol diet with or without 2′-FL for 2 weeks (FIG. 5E)
  Intestinal amount of E. faecalis (fecal E. faecalis, qPCR): decreased
E. faecalis; chronic-binge ethanol diet with or without 2′-FL for 2 weeks (FIG. 5F)
  Fecal cytolysin (qPCR): decreased
[1]
  E. faecalis growth (OD600): not affected
Fut2^−/− mice; 2′-FL 2 mg/mL in diet for 2 weeks (FIG. 4G-4I)
  Metabolism of ethanol (plasma ethanol, hepatic Adh1 mRNA, hepatic Cyp2e1 mRNA): without affecting
Fut2^−/− mice; 2′-FL 2 mg/mL in diet for 2 weeks, compared with ethanol diet alone (FIG. 4A)
  Plasma alanine aminotransferase (ALT): lower
Fut2^−/− mice; 2′-FL 2 mg/mL in diet for 2 weeks, compared with ethanol diet alone (FIG. 4B)
  Hepatic triglyceride: lower
Fut2^−/− mice; 2′-FL 2 mg/mL in diet for 2 weeks, compared with ethanol diet alone (FIG. 4C)
  Liver histopathology (H&E-stained liver tissue): improvement
Fut2^−/− mice; 2′-FL 2 mg/mL in diet for 2 weeks, compared with ethanol diet alone (FIG. 4D)
  Hepatic Cxcl1 mRNA level: decreased
Fut2^−/− mice; 2′-FL 2 mg/mL in diet for 2 weeks, compared with ethanol diet alone (FIG. 4E)
  Hepatic Cxcl2 mRNA level: decreased
Fut2^−/− mice; 2′-FL 2 mg/mL in diet for 2 weeks, compared with ethanol diet alone (FIG. 4F)
  Oil Red O staining of liver tissue: improvement
